The target of one assay is Beta-secretase 1 (Homo sapiens, UniProt P56817). Nature of the assay: Binding affinity towards Beta-secretase determined using continuum electrostatics solvation.
Assay [1] concerns the target Human immunodeficiency virus type 1 protease (Human immunodeficiency virus 1, UniProt Q72874). Nature of the assay: Binding affinity towards human immunodeficiency virus type 1 protease determined using continuum electrostatics solvation.

Numbered stars: 1 amine (or outer) side, 2 acyl side, 3 side chain; on linkers, the order of the positions; unused ones are H or OH. Square brackets hold non-standard residues; d marks the D form. Peptide text beside a SMILES is read from it. * marks the point of attachment. Hexanoyl(5S-NH,4S-OH,6-Ph) = O=C(CC[C@H](O)[C@H](Cc1ccccc1)N[*:1])[*:2]; X3 = O=C([C@H](Cc1ccccc1)C[C@H](O)[C@H](Cc1ccccc1)N[*:1])[*:2]; X4 = CC(C)C[C@H](C[C@H](O)[C@H](Cc1ccccc1)N[*:1])C(=O)[*:2]; X1 = CCC[C@H](C[C@H](O)[C@H](Cc1ccccc1)N[*:1])C(=O)[*:2]; X2 = C[C@H](C[C@H](O)[C@H](Cc1ccccc1)N[*:1])C(=O)[*:2]; Cbz = O=C(OCc1ccccc1)*

Chain of Beta-secretase 1 (P56817 whole entry): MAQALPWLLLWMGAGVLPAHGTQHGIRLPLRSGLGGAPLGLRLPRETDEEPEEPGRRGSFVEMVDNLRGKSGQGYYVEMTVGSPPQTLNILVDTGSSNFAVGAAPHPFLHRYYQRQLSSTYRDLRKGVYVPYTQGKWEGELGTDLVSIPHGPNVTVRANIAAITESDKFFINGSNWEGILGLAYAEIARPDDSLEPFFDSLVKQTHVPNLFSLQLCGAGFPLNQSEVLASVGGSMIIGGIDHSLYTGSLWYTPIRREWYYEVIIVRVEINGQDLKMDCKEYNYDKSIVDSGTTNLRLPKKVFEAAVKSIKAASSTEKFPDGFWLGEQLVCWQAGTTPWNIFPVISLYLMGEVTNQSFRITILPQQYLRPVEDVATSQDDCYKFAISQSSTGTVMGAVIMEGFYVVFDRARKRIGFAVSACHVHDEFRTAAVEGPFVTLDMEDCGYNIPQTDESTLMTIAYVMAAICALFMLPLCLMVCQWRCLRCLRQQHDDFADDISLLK

Broadly, the Ki is the equilibrium dissociation constant of an inhibitor or competing ligand from its target. For `CC(C)C[C@H](NC(=O)[C@H](CS(C)(=O)=O)NC(=O)OC(C)(C)C)C(O)CC(C)C(=O)N[C@H](C(=O)NCc1ccccc1)C(C)C` (some centres undefined), at Beta-secretase 1, the Ki came out at 1130 nM. For the molecule `COC(=O)C(NC(=O)C(NC(=O)[C@H](Cc1ccccc1)C[C@H](O)C(Cc1ccccc1)NC(=O)C(C)NC(=O)OCc1ccccc1)C(C)C)C(C)C` (some centres undefined), the inhibition constant Ki in assay [1] was 0.6 nM. On the same count and under the same terms, the result for `CC(C)C(NC(=O)CC[C@H](O)C(Cc1ccccc1)NC(=O)OC(C)(C)C)C(N)=O` (some centres undefined) reads 6500 nM; that for `CCC[C@H](C[C@H](O)C(Cc1ccccc1)NC(=O)C(C)NC(=O)OCc1ccccc1)C(=O)NC(C(=O)NC(C(=O)OC)C(C)C)C(C)C` (some centres undefined), 0.6 nM. In turn, `CC(C)C[C@H](NC(=O)C(CS(C)(=O)=O)NC(=O)[C@@H](NC(=O)OC(C)(C)C)C(C)C)C(O)CC(C)C(=O)N[C@H](C(=O)NCc1ccccc1)C(C)C` (some centres undefined) had a Ki at Beta-secretase 1 of 9.4 nM. With `COC(=O)[C@@H](NC(=O)[C@@H](NC(=O)CC[C@H](O)[C@H](Cc1ccccc1)NC(=O)[C@H](C)NC(=O)[C@H](C)N)C(C)C)C(C)C` (H-AA[Hexanoyl(5S-NH,4S-OH,6-Ph)]VV-OMe), the Ki in assay [1] was found to be 4 nM. At Beta-secretase 1, `CC(C)C[C@H](NC(=O)[C@@H](N)CCC(=O)O)C(=O)N[C@@H](CC(=O)O)C(=O)N[C@@H](CC(C)C)C(=O)C(O)CN[C@@H](C)C(=O)N[C@H](C(=O)N[C@@H](CCC(=O)O)C(=O)N[C@@H](Cc1ccccc1)C(=O)O)C(C)C` (some centres undefined) gave a Ki of 0.3 nM. The same measure, in the same setting: then `CC(C)C[C@H](NC(=O)[C@@H](NC(=O)OC(C)(C)C)C(N)=O)C(O)CC(C)C(=O)N[C@@H](C)C(=O)NCc1ccccc1` (some centres undefined), with 22400 nM. Molecule `COC(=O)[C@@H](NC(=O)[C@@H](NC(=O)CC[C@H](O)[C@H](Cc1ccccc1)NC(=O)[C@H](C)NC(=O)[C@H](C)NC(=O)OCc1ccccc1)C(C)C)C(C)C` (Cbz-AA[Hexanoyl(5S-NH,4S-OH,6-Ph)]VV-OMe) showed a Ki in assay [1] of 44 nM. `COC(=O)[C@@H](NC(=O)[C@@H](NC(=O)[C@H](C)C[C@H](O)[C@H](Cc1ccccc1)NC(=O)[C@H](C)NC(=O)[C@H](C)NC(=O)OCc1ccccc1)C(C)C)C(C)C` (Cbz-AA[X2]VV-OMe): the Ki in assay [1] was determined as 0.6 nM.

On to `COC(=O)[C@@H](NC(=O)[C@@H](NC(=O)[C@H](CC(C)C)C[C@H](O)[C@H](Cc1ccccc1)NC(=O)[C@H](C)NC(=O)[C@H](C)NC(=O)OCc1ccccc1)C(C)C)C(C)C` (Cbz-AA[X4]VV-OMe), for which the Ki in assay [1] amounted to 0.8 nM. In turn, `CSCCC(NC(=O)OC(C)(C)C)C(=O)N[C@@H](CC(C)C)C(O)CC(C)C(=O)N[C@H](C(=O)NCc1ccccc1)C(C)C` (some centres undefined) yielded a Ki on Beta-secretase 1 of 58.8 nM. Take `COC(=O)[C@@H](NC(=O)[C@@H](NC(=O)[C@H](C)C[C@H](O)[C@H](Cc1ccccc1)NC(=O)[C@H](C)NC(=O)[C@H](C)N)C(C)C)C(C)C` (H-AA[X2]VV-OMe): affinity in assay [1] was put at a Ki of 3 nM.

`CC(C)C[C@H](C[C@H](O)C(Cc1ccccc1)NC(=O)C(C)NC(=O)OCc1ccccc1)C(=O)NC(C(N)=O)C(C)C` (some centres undefined) displayed an inhibition constant Ki in assay [1] of 3.9 nM. Still for that read-out and setting: then `CC(NC(=O)OCc1ccccc1)C(=O)NC(Cc1ccccc1)[C@@H](O)C[C@@H](C)C(=O)NC(C(N)=O)C(C)C` (some centres undefined), with 50 nM.

For the molecule `CC(C)C[C@H](NC(=O)C(NC(=O)[C@@H](NC(=O)OC(C)(C)C)C(C)C)C(N)=O)C(O)CC(C)C(=O)N[C@@H](C)C(=O)NCc1ccccc1` (some centres undefined), at Beta-secretase 1, the inhibition constant (Ki) is 61.4 nM. The molecule `CCC[C@H](C[C@H](O)[C@H](Cc1ccccc1)NC(=O)[C@H](C)NC(=O)[C@H](C)NC(=O)OCc1ccccc1)C(=O)N[C@H](C(=O)N[C@H](C(=O)OC)C(C)C)C(C)C` (Cbz-AA[X1]VV-OMe) showed a Ki in assay [1] of 0.4 nM. The same measure, in the same setting: the result for `CCC[C@H](C[C@H](O)C(Cc1ccccc1)NC(=O)C(C)NC(=O)OCc1ccccc1)C(=O)NC(C(N)=O)C(C)C` (some centres undefined) reads 20 nM. The molecule `CC(C)C[C@H](NC(=O)C(NC(=O)[C@@H](NC(=O)OC(C)(C)C)C(C)C)C(N)=O)C(O)CC(C)C(=O)N[C@H](C(=O)NCc1ccccc1)C(C)C` (some centres undefined) displayed a Ki on Beta-secretase 1 of 5.9 nM. As to `CC(C)C(NC(=O)[C@H](Cc1ccccc1)C[C@H](O)C(Cc1ccccc1)NC(=O)OC(C)(C)C)C(N)=O` (some centres undefined), the affinity in assay [1], expressed as Ki, was 1.4 nM.

For `CC(C)C(NC(=O)[C@H](C)C[C@H](O)C(Cc1ccccc1)NC(=O)OC(C)(C)C)C(N)=O` (some centres undefined), the affinity in assay [1], expressed as Ki, was 260 nM. This Ki lies about 190-fold higher than the previous one. In assay [1], `CC(NC(=O)OCc1ccccc1)C(=O)NC(Cc1ccccc1)[C@@H](O)C[C@@H](Cc1ccccc1)C(=O)NC(C(N)=O)C(C)C` (some centres undefined) yielded a Ki of 0.6 nM. On the same count and under the same terms, then `CC(C)C[C@H](C[C@H](O)C(Cc1ccccc1)NC(=O)OC(C)(C)C)C(=O)NC(C(N)=O)C(C)C` (some centres undefined), with 23 nM; and `COC(=O)C(NC(=O)C(NC(=O)CC[C@H](O)C(Cc1ccccc1)NC(=O)C(C)NC(=O)OCc1ccccc1)C(C)C)C(C)C` (some centres undefined), with 118 nM.

In turn, `CC(C)C[C@H](NC(=O)[C@@H](NC(=O)OC(C)(C)C)C(N)=O)C(O)CC(C)C(=O)N[C@H](C(=O)NCc1ccccc1)C(C)C` (some centres undefined) displayed a Ki on Beta-secretase 1 of 3130 nM. Turning to `CSCCC(NC(=O)[C@@H](NC(=O)OC(C)(C)C)C(C)C)C(=O)N[C@@H](CC(C)C)C(O)CC(C)C(=O)N[C@H](C(=O)NCc1ccccc1)C(C)C` (some centres undefined), the Ki on Beta-secretase 1 was determined as 2.5 nM. On to `COC(=O)[C@@H](NC(=O)[C@@H](NC(=O)[C@H](CC(C)C)C[C@H](O)[C@H](Cc1ccccc1)NC(=O)[C@H](C)NC(=O)[C@H](C)N)C(C)C)C(C)C` (H-AA[X4]VV-OMe), for which, in assay [1], the Ki was 0.6 nM. For `CSCC(NC(=O)[C@@H](NC(=O)OC(C)(C)C)C(C)C)C(=O)N[C@@H](CC(C)C)C(O)CC(C)C(=O)N[C@H](C(=O)NCc1ccccc1)C(C)C` (some centres undefined), the Ki at Beta-secretase 1 was determined as 50.1 nM. With `COC(=O)C(NC(=O)C(NC(=O)[C@H](CC(C)C)C[C@H](O)C(Cc1ccccc1)NC(=O)C(C)NC(=O)OCc1ccccc1)C(C)C)C(C)C` (some centres undefined), in assay [1], the Ki came to 0.9 nM. As to `COC(=O)[C@@H](NC(=O)[C@@H](NC(=O)[C@H](Cc1ccccc1)C[C@H](O)[C@H](Cc1ccccc1)NC(=O)[C@H](C)NC(=O)[C@H](C)NC(=O)OCc1ccccc1)C(C)C)C(C)C` (Cbz-AA[X3]VV-OMe), the Ki in assay [1] stood at 0.4 nM. Compared with the last molecule, the Ki is about 2.2-fold lower.

As to `CCC[C@H](C[C@H](O)[C@H](Cc1ccccc1)NC(=O)[C@H](C)NC(=O)[C@H](C)N)C(=O)N[C@H](C(=O)N[C@H](C(=O)OC)C(C)C)C(C)C` (H-AA[X1]VV-OMe), the affinity in assay [1], expressed as Ki, was 1.2 nM. Still for that read-out and setting: the result for `CC(NC(=O)OCc1ccccc1)C(=O)NC(Cc1ccccc1)[C@@H](O)CCC(=O)NC(C(N)=O)C(C)C` (some centres undefined) reads 2500 nM. On to `COC(=O)C(NC(=O)C(NC(=O)[C@H](C)C[C@H](O)C(Cc1ccccc1)NC(=O)C(C)NC(=O)OCc1ccccc1)C(C)C)C(C)C` (some centres undefined), for which the affinity in assay [1], expressed as Ki, was 1.6 nM.

In assay [1], `CCC[C@H](C[C@H](O)C(Cc1ccccc1)NC(=O)OC(C)(C)C)C(=O)NC(C(N)=O)C(C)C` (some centres undefined) came in with a Ki of 50 nM.

The values are drawn from ChEMBL document CHEMBL1137231, “Efficient evaluation of binding free energy using continuum electrostatics solvation” (J Med Chem, 2004).
